Reference: a melting point compilation (Tetko et al.; mined from patent text by program, amines drawn as free bases though some values may be those of a salt)
Residues, ends and D or L forms follow the SMILES beside them. *: point of attachment. Cbz = O=C(OCc1ccccc1)*; Bn = c1ccc(C*)cc1

Row | SMILES | melting point
1 | C=CCn1cc(C(=O)O)c(=O)c2cc(F)c(F)c(F)c21 | 194 to 197 °C
2 | O=C(COc1ccc([N+](=O)[O-])cc1)OCCOC(=O)COc1ccc([N+](=O)[O-])cc1 | 118 to 121 °C
3 | COc1cc(C(=O)Nc2nn(-c3ccccc3)cc2C=O)ccc1OCc1nc(-c2ccccc2)oc1C | 234 to 235 °C
4 | C=CCNc1cc(C(=O)O)cc(S(N)(=O)=O)c1Oc1ccccc1 | 223 to 225 °C
5 | O=C(O)N1CCN(C(=O)c2cccs2)CC1 | 76 °C
6 | CCOCc1nc2c(N(Cc3ccccc3)Cc3ccccc3)nc(Cl)c(C)c2n1N | 127 to 129 °C
7 | CCN(CC)C(C)CN1CCc2c(c(=O)oc3cc(C)c(Cl)cc23)C1 (stereo not given) | 78 to 80 °C
8 | CN1CCC[C@H](OCc2cc(C(F)(F)F)cc(C(F)(F)F)c2)[C@@H]1c1ccccc1 | 40 to 42 °C
9 | O=C(O)c1ccc(/C=C/c2ccccc2-c2cccs2)cc1 | 208 to 210 °C
10 | CC(N=c1cccccc1NC(C)c1ccccc1)c1ccccc1 (stereo not given) | 74 °C
11 | OC(CCCN1CC=C(c2ccc(Cl)cc2)CC1)c1ccc(F)cc1 (stereo not given) | 103 to 105 °C
12 | COCOc1ccc(-c2ncc3ccc(-c4csc(CN5CCOCC5)c4)nc3n2)cc1 | > 268 °C
13 | CS(=O)(=O)c1ccc(-c2cc(C(F)F)nn2C2CCCCC2)cc1F | 138 to 139 °C
14 | Cn1nc(N)c2c(F)cccc21 | 125 to 127 °C
15 | CC(C)C(NS(=O)(=O)c1ccc(-c2ccccc2)cc1)C(=O)O (stereo not given) | 164 to 166 °C
16 | CC(Oc1ccc(Oc2ccc3cc(Cl)ccc3n2)cc1)C(=O)Nc1ccc(C(F)(F)F)cc1 (stereo not given) | 142 to 146 °C
17 | O=Cc1sc(Cl)c(Cl)c1Cl | 81 to 82 °C
18 | CS(=O)(=O)C(=C1CN(C(c2ccc(Cl)cc2)c2ccc(Cl)cc2)C1)c1cc(F)cc(F)c1 | 200 °C
19 | CC1COc2c(N3Cc4cccc(F)c4C3)c(F)cc3c(=O)c(C(=O)O)cn1c23 (stereo not given) | > 300 °C
20 | CCOC(=O)c1cc(=O)n(CCC(C(=O)NO)N(C)S(=O)(=O)c2ccc(Oc3ccccc3)cc2)c(=O)[nH]1 (stereo not given) | 159 to 160 °C
21 | COC(=O)NCc1cc(OC)cc(Cl)c1Cl | 90 to 91 °C
22 | C[C@H](NC(=O)C(CSC(=O)c1ccccc1)SC(=O)c1ccccc1)C(=O)N1CCC[C@H]1C(=O)O (stereo not given in full) | 185 to 186 °C
23 | O=C(O)CSc1nccn1Cc1cc(F)cc(F)c1 | 101 to 103 °C
24 | CN(C)C(=O)c1ccncc1-c1nc(-c2ccc(Cl)cc2)cs1 | 195 °C

Row | SMILES | melting point
25 | C=CCO[C@H]1[C@@H](OCc2ccccc2)[C@@H](OCc2ccccc2)[C@H](OCc2ccccc2)[C@@H](OCc2ccccc2)[C@]1(O)CC=C (racemic) | 97.5 °C
26 | O=c1nc(NCc2ccc(Cl)cc2)n2c3c1cnn3C(c1cccc(C(F)(F)F)c1)=CC2 | 281 to 282 °C
27 | CCCC(=O)Nc1n[nH]c2cc(-c3ccc(CC)cc3)ccc12 | 210 °C
28 | COc1cc2ncc(C#N)c(Nc3ccc4[nH]ncc4c3)c2cc1OC | 290 to 295 °C
29 | Oc1cnccc1CCCOc1cccnc1Oc1cccc(F)c1 | 68 to 70 °C
30 | Cn1cc(CC(=O)O)c2cc(-c3ccc(C(F)(F)F)cc3)ccc21 | 167 to 168 °C
31 | CCCCCN(CCC12CC3CC(CC(C3)C1)C2)C(=O)NCCc1ccncc1 | 107 to 118 °C
32 | COc1ccccc1NC(=O)Nc1nc(Nc2ccccc2C(=O)O)nc(Nc2ccccc2-c2ccccc2)n1 | 228 °C
33 | Cn1cc(OS(C)(=O)=O)c(=O)c2ccc(C(F)(F)F)cc21 | 218 °C
34 | COc1cc(CC(C)=O)c([N+](=O)[O-])cc1Cl | 114 to 115 °C
35 | O=CN(c1cc(Cl)cc(Cl)c1)c1cc(S(=O)(=O)NC(c2ccccc2)c2ccccc2)ccc1Cl | 196 to 198 °C
36 | Nc1cc(I)cc(CF)c1 | 48.5 to 50 °C
37 | COc1cccc2c(CCCCN(CC3CC3)C3COc4c(F)ccc(C(N)=O)c4C3)coc12 (stereo not given) | 114 to 120 °C
38 | COc1ccc(-c2cc(Cl)cc3c2NC(CN)CO3)c(Cl)c1 (stereo not given) | 105 °C
39 | CCN(CC)CCOc1ccc(-c2nnc(CSCCOc3ccccc3)o2)cc1 | 32 to 35 °C
40 | CN1CCC(=C2c3ccc(Cl)cc3C(=O)Cc3cccnc32)CC1 | 181 to 183 °C
41 | CCOC(=O)C(=O)Nc1ccc2c(c1)OCC(=O)N2 | 239 to 240 °C
42 | CCCCCCCC(=O)NCCCCCO | 62 to 63 °C
43 | CC(C)OCCCNc1c([N+](=O)[O-])cnc2cccnc12 | 62.5 to 63.5 °C
44 | Cc1cccc(-c2[nH]c(C(C)C)nc2-c2cccc(-c3ccc(S(=O)(=O)N4CCN(C)CC4)cc3)c2)n1 | 110 to 116 °C
45 | Cc1nc(-c2ccc(Cl)cc2)oc1CO | 135 °C
46 | O=C(NCc1cccnc1)c1cc(N2CCN(Cc3ccc(F)cc3)C2=O)n[nH]1 | 251 to 253 °C
47 | COCCOc1cc2ncc(C#N)c(Cl)c2cc1OC | 178 to 180 °C
48 | CCc1c(C)c(=O)oc2cc(-c3nnc(C)s3)cc(OC)c12 | 135 to 138 °C

Row | SMILES | melting point
49 | CCOC(=O)NN(C)c1cc(C)c(-c2ccc(C#N)cc2)nn1 | 138 to 142 °C
50 | CC(C(=O)O)c1ccc(-c2ccc(Br)cc2F)cc1 (stereo not given) | 137 to 139 °C
51 | O=Cc1ccccc1-c1noc2cc(Cl)ccc12 | 116 to 117 °C
52 | O=C(O)CCCCCCCCNS(=O)(=O)c1ccccc1 | 82 to 84 °C
53 | O=C(OCc1ccccc1)C1Cc2sccc2C(=O)N1Cc1ccccc1 (stereo not given) | 72 °C
54 | O=C1c2ccccc2-c2c1c1ccccc1c(=O)n2CCNCCO | 184 °C
55 | Cc1cc([N+](=O)[O-])ccc1N=C1SC(=O)CN1CC(C)C | 152 °C
56 | CSC1=CC2=CN(S)NN2C(C)=N1 | 256 to 258 °C
57 | CCNC(=O)C(COCc1ccccc1)NC(=O)C(Cc1ccc(OCc2ccccc2)cc1)NC(=O)C(Cc1c[nH]cn1)NC(=O)OCc1ccccc1 (stereo not drawn) (Cbz-His-Tyr(Bn)-Ser(Bn)-NHEt; configuration not given here) | 182 to 188 °C
58 | O=C(Cn1cncc(NC(=O)OCc2ccccc2)c1=O)NC(Cc1ccccc1)C(=O)C(F)(F)F (stereo not given) | 132 to 134 °C
59 | S=C(NCCN1CCOCC1)Nc1nccs1 | 150 to 152 °C
60 | CCc1[nH]n(C2CCCC2)c2nc(-c3ccccc3)nc(=O)c1-2 | 221 to 222 °C
61 | CCCC(=O)Nc1ccc(-c2cc(C(C)(C)C)c(O)c(C(C)(C)C)c2)cc1 | 180 to 181 °C
62 | CCOC(=O)CCCCC(=O)c1ccc2cc(OCCC(C)C)ccc2c1 | 65 to 66 °C
63 | COc1cc(/C=C/C(=O)/C=C/c2ccc(O)c(OC)c2)ccc1O | 82 to 83 °C
64 | CCOC(=O)COc1ccc(C(C)=O)cc1NC(=O)c1ccc(OCCCCc2ccccc2)cc1 | 105 to 107 °C
65 | CCC(=NO)c1ccccc1O | 88 to 90 °C
66 | Cc1noc(NS(=O)(=O)c2ccc(Cl)cc2)c1Br | 145 to 150 °C
67 | C=CCNC(=O)ON=C1SCOC1C (stereo not given) | 66 to 67.5 °C
68 | O=C(Nc1ccc(-n2nc(C(F)(F)F)cc2C2CC2)nc1)c1c(Cl)cncc1Cl | 223 to 225 °C
69 | CN(C)c1cnn(C)c(=O)c1-c1ccccc1C=NO | 202 to 203 °C
70 | O=C(NCCCCCCOC(=O)N1CCC2(CCCC2)CC1)OC1CCN(C(=O)Oc2ccc(Oc3ccccc3)cc2)CC1 | 83 to 85 °C
